Results on one compound are retold here after paper PMC8921294, “Inhibition of mitochondrial LonP1 protease by allosteric blockade of ATP binding and hydrolysis via CDDO and its derivatives” (The Journal of Biological Chemistry, 2022).

One test deals with T1, LonP1 F547A (Homo sapiens, UniProt P36776, F547A).
T1 construct: hexa-histidine (N); made in house; host or cells: Rosetta 2 E. coli
T1 sequence (P36776 68-959 F547A): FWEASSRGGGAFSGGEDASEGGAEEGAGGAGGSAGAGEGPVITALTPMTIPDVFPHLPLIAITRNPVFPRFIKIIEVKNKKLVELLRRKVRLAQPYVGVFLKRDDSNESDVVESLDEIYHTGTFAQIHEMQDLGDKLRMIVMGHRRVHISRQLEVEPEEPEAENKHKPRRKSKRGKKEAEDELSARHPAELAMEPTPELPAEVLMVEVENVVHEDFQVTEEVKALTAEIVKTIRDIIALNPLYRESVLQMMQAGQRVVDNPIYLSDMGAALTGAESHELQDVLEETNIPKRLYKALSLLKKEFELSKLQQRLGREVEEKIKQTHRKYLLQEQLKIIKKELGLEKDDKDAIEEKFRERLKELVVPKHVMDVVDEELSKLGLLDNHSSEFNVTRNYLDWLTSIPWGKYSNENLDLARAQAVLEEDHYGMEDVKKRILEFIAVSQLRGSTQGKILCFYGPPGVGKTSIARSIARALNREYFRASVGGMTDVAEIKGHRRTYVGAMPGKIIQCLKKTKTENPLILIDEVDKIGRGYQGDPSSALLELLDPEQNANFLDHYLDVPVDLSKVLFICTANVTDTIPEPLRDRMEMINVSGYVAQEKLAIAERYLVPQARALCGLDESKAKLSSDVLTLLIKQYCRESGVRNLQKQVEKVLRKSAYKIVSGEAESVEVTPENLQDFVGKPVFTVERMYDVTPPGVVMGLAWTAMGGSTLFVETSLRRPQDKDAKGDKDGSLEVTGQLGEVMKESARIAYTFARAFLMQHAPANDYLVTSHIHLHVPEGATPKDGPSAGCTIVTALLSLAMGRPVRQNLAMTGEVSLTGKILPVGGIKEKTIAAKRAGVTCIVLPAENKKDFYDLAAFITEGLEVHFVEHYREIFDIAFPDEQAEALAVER
Kind of test: Endpoint ATPase assay, LonP1 F547A. The class given is biochemical. On the procedure: (§1) Human mitochondrial LonP1 and mutants lacking the predicted mitochondrial targeting sequence were fused to an N-terminal hexa-histidine affinity tag, expressed in Rosetta 2 E. Coli, and purified using a nickel agarose column as previously described ([72]) and protein concentration and buffer exchange carried out using Amicon Ultra centrifugal filtration. LonP1 mutant constructs were obtained from the PCR-based QuikChange Site-Directed Mutagenesis Kit.
(§2) ADP-Glo (Promega) assays were performed according to the manufacturer's protocols. Purified wild-type or mutant LonP1 (400 nM monomer), the 26S proteasome (3 nM), or no enzyme controls were preincubated in 96-well plates (60 min, 25 °C) with ten different concentrations of CDDO and its derivatives, TP-82, enoxolone (5 μM) or DMSO vehicle control in buffer (40 mM Tris-HCl (pH 7.5), 20 mM MgCl2, 0.1 mg/ml BSA and 5% DMSO). The 26S and 20S proteasome were also assayed at 0, 0.75, 1.5, 3, 6, and 12 nM in the absence of CDDO derivatives. […] Assay reagents were used to quench further ATPase activity and generate luminescence signals proportional to the concentration of ADP formed. Background (no enzyme control) luminescence values were subtracted, and resultant values were reported as a percentage of the no drug control (100%). […]

The next test addresses T2, LonP1 C576S (Homo sapiens, UniProt P36776, C576S).
T2 construct: hexa-histidine (N); made in house; host or cells: Rosetta 2 E. coli
T2 sequence (P36776 68-959 C576S): T1 sequence (P36776 68-959 F547A) with A480F, C509S
Kind of test: Endpoint ATPase assay, LonP1 C576S. The class given is biochemical. On the procedure: as §1, §2

Numbering of substitutions follows the chain as printed.

Consider `CC1(C)CC[C@]2(C(=O)O)CC[C@]3(C)[C@H](C(=O)C=C4[C@@]5(C)C=C(C#N)C(=O)C(C)(C)[C@@H]5CC[C@]43C)[C@@H]2C1` [CDDO, 2-cyano-3,12-dioxooleana-1,9(11)-dien-28-oic acid], for which the “Fold increase in inhibition compared with WT” value is recorded as 2.4 on LonP1 F547A and 1.2 at LonP1 C576S. Moreover, the IC50 (usually the concentration that gives 50% inhibition) at LonP1 F547A (end-point ATPase assay, read-out: CDDO IC50) was 5.9 ± 0.6 µM; at LonP1 C576S (end-point ATPase assay, N = 1, read-out: CDDO IC50) it was 11.9 µM.
